Reference: US11992495B2 (THE REGENTS OF THE UNIVERSITY OF CALIFORNIA, priority 2017, dated 2024)

System: lymph node mononuclear cells (T cell proliferation in response to HEL)
Experiment: T cell recall responses to HEL, 3H-thymidine uptake (proliferation)
Assay type: cell-based, Mice
Details: alprazolam (Xanax) alone, any of the dosages tested
Experimental: Mice were injected with hen egg lysozyme (HEL, a prototypic foreign antigen) in 50% complete Freund's adjuvant (CFA) in their hind food-pad. […] During the last 16 h of a 96 h incubation period, […] ^3H thymidine was added into each well.

Structure (SMILES): Cc1nnc2n1-c1ccc(Cl)cc1C(c1ccccc1)=NC2 [alprazolam]
- effect on T cell proliferation: did not have a significant effect
